Experimental data from patent US8722670B2, “Selective NR2B antagonists” (Bristol-Myers Squibb Company, priority 2011, dated 2014).
Read-outs that look alike come from different tables or passages of the source.

Target: T1, hNR2B (Homo sapiens, UniProt Q05586+Q13224)
T1 construct: expressed in transfected cells; host or cells: Xenopus laevis oocytes, cRNA-injected
Assay: Electrophysiology NMDA receptor experiments: two electrode voltage-clamp in Xenopus laevis oocytes, hNR2B IC50
Format: cell-based
Conditions: 50 μM glutamate, 30 μM glycine

[1] = hNR2B activity class, read-out: Activity
[2] = voltage clamp -40 mV, read-out: hNR2B IC50

T1 sequence (Q13224 27-1484, other chains not shown): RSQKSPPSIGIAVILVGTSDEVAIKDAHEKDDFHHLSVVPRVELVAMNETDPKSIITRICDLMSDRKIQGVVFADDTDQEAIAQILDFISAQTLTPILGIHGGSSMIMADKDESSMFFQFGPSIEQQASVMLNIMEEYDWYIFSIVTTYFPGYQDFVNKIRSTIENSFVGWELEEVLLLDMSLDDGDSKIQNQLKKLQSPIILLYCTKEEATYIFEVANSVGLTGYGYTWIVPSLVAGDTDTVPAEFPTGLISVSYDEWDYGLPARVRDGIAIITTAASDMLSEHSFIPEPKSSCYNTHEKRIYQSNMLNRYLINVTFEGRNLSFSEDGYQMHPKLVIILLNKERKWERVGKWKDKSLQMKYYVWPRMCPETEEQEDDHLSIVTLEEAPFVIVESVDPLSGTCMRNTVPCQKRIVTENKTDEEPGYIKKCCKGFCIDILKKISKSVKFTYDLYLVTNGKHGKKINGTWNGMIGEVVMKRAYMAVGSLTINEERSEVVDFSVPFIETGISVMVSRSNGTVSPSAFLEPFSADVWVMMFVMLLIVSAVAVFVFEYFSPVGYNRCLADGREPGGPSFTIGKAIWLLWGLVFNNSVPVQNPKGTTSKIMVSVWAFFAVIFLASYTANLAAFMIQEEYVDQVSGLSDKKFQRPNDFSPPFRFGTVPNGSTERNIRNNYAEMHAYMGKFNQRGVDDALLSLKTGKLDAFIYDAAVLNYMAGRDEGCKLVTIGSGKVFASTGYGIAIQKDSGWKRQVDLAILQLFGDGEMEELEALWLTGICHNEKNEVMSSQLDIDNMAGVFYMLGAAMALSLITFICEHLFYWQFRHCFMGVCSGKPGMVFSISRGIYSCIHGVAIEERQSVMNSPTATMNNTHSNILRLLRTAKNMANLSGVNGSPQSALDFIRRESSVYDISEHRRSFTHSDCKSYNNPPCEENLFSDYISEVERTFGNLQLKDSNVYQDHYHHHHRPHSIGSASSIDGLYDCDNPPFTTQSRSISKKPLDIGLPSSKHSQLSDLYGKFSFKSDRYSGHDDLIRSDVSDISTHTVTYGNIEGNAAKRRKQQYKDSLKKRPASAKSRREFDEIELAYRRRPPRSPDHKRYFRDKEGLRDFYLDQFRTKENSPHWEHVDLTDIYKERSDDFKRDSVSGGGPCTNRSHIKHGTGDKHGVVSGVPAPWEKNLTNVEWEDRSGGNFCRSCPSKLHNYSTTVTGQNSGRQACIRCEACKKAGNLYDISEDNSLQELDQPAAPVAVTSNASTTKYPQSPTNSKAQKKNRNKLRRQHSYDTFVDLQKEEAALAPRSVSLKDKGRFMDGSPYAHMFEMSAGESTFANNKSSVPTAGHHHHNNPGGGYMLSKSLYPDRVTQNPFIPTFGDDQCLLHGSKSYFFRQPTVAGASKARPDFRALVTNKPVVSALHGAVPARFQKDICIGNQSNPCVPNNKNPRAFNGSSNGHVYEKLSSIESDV

IC50 [1] [nM]	IC50 [2] [nM]	SMILES
1000 to 10000	–	Cc1ccc(Nc2cc(COc3ccc4[nH]c(=O)ccc4c3)on2)cc1C [Example 262]
< 200	–	CCc1ccc(Nc2noc(CCc3ccc4[nH]ncc4c3)n2)cc1 [Example 211]
< 200	–	CC(C)c1ccc(Nc2nnc(COc3ccc4[nH]c(=O)ccc4c3)o2)cc1 [Example 52]
< 200	–	CCc1ccc(Nc2noc(CCc3ccc4[nH]ncc4c3)n2)cc1F [Example 215]
< 200	–	O=c1[nH]c2ccc(OCc3nnc(NCc4ccc(Cl)c(Cl)c4)o3)cc2[nH]1 [Example 112]
–	24	Cn1c(COc2ccc3[nH]c(=O)ccc3c2)nnc1Nc1ccc(Cl)c(Cl)c1 [Example 276, 6-((5-(3,4-dichlorophenylamino)-4-methyl-4H-1,2,4-triazol-3-yl)methoxy)quinolin-2(1H)-one]
201 to 1000	–	COc1ccc(Nc2nnc(COc3ccc4[nH]c(=O)ccc4c3)o2)cc1F [Example 103]
–	18	O=c1ccc2cc(OCc3nnc(Nc4ccc(Cl)c(F)c4)o3)ccc2[nH]1 [Example 49]
1000 to 10000	–	FC(F)Oc1ccc(Nc2noc(CCCc3ccc4[nH]ncc4c3)n2)cc1Cl [Example 206]
< 200	–	COc1ccc(Nc2noc(COc3ccc4[nH]c(=O)ccc4c3)n2)cc1F [Example 166]
1000 to 10000	–	FC(F)Oc1ccc(Nc2noc(CCc3cccc4[nH]ncc34)n2)cc1Cl [Example 231]
201 to 1000	–	O=c1ccc2cc(OCc3nc(Nc4ccc(Cl)c(Cl)c4)no3)ccc2[nH]1 [Example 178]
–	57	O=C1CCc2cc(OCc3nnc(Nc4ccc(Cl)c(Cl)c4)o3)ccc2N1 [Example 5]
< 200	–	Cn1c(CCNc2ncnc3[nH]ncc23)nnc1Nc1ccc(OC(F)F)cc1 [Example 280]
> 10000	–	Oc1cccc(Cc2nnc(NCc3ccc(Cl)c(Cl)c3)o2)c1 [Example 148]
> 10000	–	Clc1ccc(Nc2noc(CCCc3ccc4[nH]ncc4c3)n2)cc1Cl [Example 202]
> 10000	–	FC(F)(F)c1ccc(Nc2noc(CCCc3ccc4[nH]ncc4c3)n2)cc1 [Example 203]
201 to 1000	–	O=C1CCc2cc(OCc3nc(Nc4ccc(OC(F)(F)F)cc4)no3)ccc2N1 [Example 179]
–	4800	O=C1CCc2cc(OCc3nnc(C(O)c4ccc(Cl)c(Cl)c4)o3)ccc2N1 (centres unmarked) [Example 290, 6-((5-((3,4-dichlorophenyl)(hydroxy)methyl)-1,3,4-oxadiazol-2-yl)methoxy)-3,4-dihydroquinolin-2(1H)-one]
> 10000	–	FC(F)Oc1ccc(Nc2noc(CCc3ccc4[nH]nc(C(F)(F)F)c4c3)n2)cc1Cl [Example 197]
–	145	O=c1ccc2cc(OCc3nc(Nc4ccc(C(F)(F)F)cc4)no3)ccc2[nH]1 [Example 181]
< 200	–	CS(=O)(=O)Nc1ccc(OCc2nnc(Nc3ccc(Cl)c(Cl)c3)o2)cc1 [Example 29]
–	321	O=c1ccc2cc(OCc3cc(NCc4ccc(OC(F)F)cc4)no3)ccc2[nH]1 [Example 253, 6-((3-(4-(difluoromethoxy)benzylamino)isoxazol-5-yl)methoxy)quinolin-2(1H)-one]
< 200	–	FC(F)Oc1ccc(Nc2cc(COc3ccc4[nH]ncc4c3)on2)cc1 [Example 275]
< 200	–	Oc1ccc(OCc2nnc(Nc3ccc(Cl)c(Cl)c3)o2)cc1 [Example 115]
< 200	–	CC(Oc1ccc2[nH]c(=O)ccc2c1)c1nnc(Nc2ccc(OC(F)F)c(Cl)c2)o1 (centres unmarked) [Example 108]
1000 to 10000	–	O=c1ccc2cc(OCc3nnc(NCc4ccccc4C(F)(F)F)o3)ccc2[nH]1 [Example 75]

More lines, now with the values behind:

SMILES	IC50 [1] [nM]	IC50 [2] [nM]
O=c1ccc2cc(OCc3nnc(Nc4ccccc4F)o3)ccc2[nH]1 [Example 33]	> 10000	–
O=c1ccc2cc(OCc3nnc(NCc4cccc(F)c4)o3)ccc2[nH]1 [Example 68]	201 to 1000	–
Cn1c(COc2ccc3[nH]c(=O)ccc3c2)nnc1Nc1ccc(OC(F)F)cc1 [Example 278]	–	90
O=c1[nH]c2ccc(OCc3nnc(Nc4ccc(Cl)c(Cl)c4)o3)cc2[nH]1 [Example 113]	< 200	–
Fc1cc(Nc2noc(C3CC3c3ccc4[nH]ncc4c3)n2)ccc1OC(F)F (centres unmarked) [Example 238]	< 200	–
Clc1ccc(Nc2nnc(COc3ccc4[nH]ncc4c3)o2)cc1Cl [Example 50]	< 200	–
O=c1ccc2cc(OCc3nnc(Nc4ccc(C(F)(F)F)c(Cl)c4)o3)ccc2[nH]1 [Example 73]	< 200	–
O=c1ccc2cc(OCc3nnc(NCc4ccc(Cl)nc4)s3)ccc2[nH]1 [Example 251]	–	9400
Fc1cc(Nc2cc(COc3ccc4[nH]ncc4c3)on2)ccc1OC(F)F [Example 274]	< 200	–
Oc1ccc(OCc2nnc(NCc3ccc(Cl)c(Cl)c3)o2)cc1 [Example 114]	< 200	–
O=C1CCc2cc(CCc3nnc(Nc4ccc(Cl)cc4)o3)ccc2N1 [Example 129]	< 200	–
FC(F)Oc1ccc(Nc2noc(CCc3ccc4[nH]ncc4c3)n2)cc1Cl [Example 205]	> 10000	–
O=c1ccc2cc(OCc3nnc(NCc4ccc(OC(F)F)cc4)o3)ccc2[nH]1 [Example 27]	< 200	–
O=c1ccc2cc(OCc3nnc(Nc4ccccc4C(F)(F)F)o3)ccc2[nH]1 [Example 54]	> 10000	–
O=C1CCc2cc(CCc3nnc(Nc4ccc(OC(F)(F)F)cc4)o3)ccc2N1 [Example 134]	< 200	–
O=c1ccc2cc(OCc3nnc(Nc4cccc(F)c4)o3)ccc2[nH]1 [Example 39]	1000 to 10000	–

SMILES	IC50 [1] [nM]	IC50 [2] [nM]
Oc1ccc(CCc2nc(Nc3ccc(OC(F)F)cc3)no2)cc1 [Example 226]	201 to 1000	–
O=c1ccc2cc(OCc3nnc(Nc4ccc(Cl)cc4)o3)ccc2[nH]1 [Example 12]	< 200	–
Cn1c(CCc2ccc3[nH]ncc3c2)nnc1Nc1ccc(OC(F)F)cc1 [Example 277, 5-(2-(1H-indazol-5-yl)ethyl)-N-(4-(difluoromethoxy)phenyl)-4-methyl-4H-1,2,4-triazol-3-amine]	–	104
O=C1CCc2cc(OCc3nnc(NCc4ccc(Cl)nc4)o3)ccc2N1 [Example 25]	> 10000	–
O=c1ccc2cc(OCc3cc(Nc4ccc(C(F)(F)F)cc4)no3)ccc2[nH]1 [Example 264]	< 200	–
Cc1ccc(Nc2noc(CCc3ccc4[nH]ncc4c3)n2)cc1F [Example 209]	–	19
O=C1CCc2cc(CCc3nnc(Nc4ccc(C(F)(F)F)cc4)o3)ccc2N1 [Example 130]	< 200	–
O=c1ccc2cc(OCc3nnc(Nc4ccc(F)c(C(F)F)c4)o3)ccc2[nH]1 [Example 99]	201 to 1000	–
Oc1ccc(OCc2nnc(Nc3ccc(Cl)c(Cl)c3)o2)nn1 [Example 118]	1000 to 10000	–
O=C1CCc2cc(OCc3nnc(Nc4ccc(C(F)(F)F)cc4)s3)ccc2N1 [Example 242]	< 200	–
CC1(C)Cc2cc(OCc3nnc(Nc4ccc(Cl)c(Cl)c4)o3)ccc2NC1=O [Example 80]	1000 to 10000	–
O=C1CCc2cc(OCc3nc(Nc4ccc(OC(F)F)cc4)no3)ccc2N1 [Example 186]	201 to 1000	–
O=C1CCc2cc(CCc3nnc(Nc4ccc(Cl)c(F)c4)o3)ccc2N1 [Example 135]	< 200	–
O=c1ccc2cc(CCc3nc(Nc4ccc(Cl)c(Cl)c4)no3)ccc2[nH]1 [Example 204]	201 to 1000	–
Cc1ccc(Nc2nnc(COc3ccc4[nH]c(=O)ccc4c3)o2)cc1F [Example 102]	< 200	–
FC(F)Oc1ccc(Nc2noc(CCc3ccc4[nH]nc(Cl)c4c3)n2)cc1Cl [Example 234]	1000 to 10000	–
